Measurements as given in patent US6936625B2 (Hanmi Pharm. Co., Ltd., priority 2001, dated 2005).
Converted amounts (≈) assume the structure as drawn. Where two headings read alike, the source gives them in different places.

Key:
Quail = conditions: oral; cited from earlier work
Mouse = conditions: in vivo, sc; cited from earlier work
[1] = Solubility test (saturation in distilled water, liquid chromatography); format: physicochemical; conditions: for Solubility: distilled water to saturation, based on the amount of amlodipine
Experimental: The measurement was performed according to the procedure described in the Korean Pharmacopoeia (Korean Ministry of Health and Welfare, General principle of medical supplies, Vol. 1, Clause 29, the 7th revision) which comprises the steps of dissolving each compound in distilled water to saturation, analyzing the saturated solution with liquid chromatography, and measuring the dissolved amount of each compound based on the amount of amlodipine.

[2] = Stability test (storage at 55° C., about 50% relative humidity); format: physicochemical; set-up: remaining amount of active amlodipine: unit not given here; conditions: relative humidity about 50%; for time-dependent stability (in words): up to 4 weeks
Experimental: Specifically, each compound was stored at 55° C., a relative humidity of about 50%, and after 1, 2, 3 and 4 weeks, the remaining amount of active amlodipine was determined with a liquid chromatography.

[3] = Non-hygroscopicity test (moisture content); format: physicochemical; conditions: for moisture content, Condition 2: 30° C. under 95% relative humidity for 3 days; for moisture content, Condition 1: 37° C. under 75% relative humidity for 24 hours; for Initial moisture: before exposure
Experimental: When a solid form of a drug is to be formulated, it is important that the drug is not hygroscopic. Accordingly, the hygroscopicity of the inventive amlodipine camsylate was measured and compared with that of amlodipine besylate.
Each compound was exposed to two conditions: 37° C. under 75% relative humidity for 24 hours (condition 1) and 30° C. under 95% relative humidity for 3 days (condition 2), and then, the moisture content of each compound was measured according to the method described in Korean Patent Publication No. 1995-7228.

Rat = conditions: oral; cited from earlier work
Cat = conditions: cutaneous; cited from earlier work
Wild-birds = conditions: oral; cited from earlier work
[4] = in a solution; cited from earlier work

Row | Compound | remaining amount of active amlodipine ([2]; 1 week) | remaining amount of active amlodipine ([2]; 2 weeks) | remaining amount of active amlodipine ([2]; 3 weeks) | remaining amount of active amlodipine ([2]; 4 weeks) | remaining amount of active amlodipine ([2]; Initial) | moisture content, Condition 2 [3] [%] | moisture content, Condition 1 [3] [%] | Initial moisture [3] [%] | also measured
1 | CC1(C)C2CCC1(CS(=O)(=O)O)C(=O)C2 (racemic) [(±)-10-Camphor sulfonic aicd, (±)-10-camphor sulfonic acid] | – | – | – | – | – | – | – | – | LD50 (Quail): LD50 > 316 mg/kg
2 | CC1(C)C2CC[C@@]1(CS(=O)(=O)O)C(=O)C2 [(1S)-(+)-10-Camphor sulfonic acid, (1S)-(+)-10-camphor sulfonic acid] | – | – | – | – | – | – | – | – | LD50 (Mouse): LD50 2502 mg/kg
3 | CCOC(=O)C1=C(COCCN)NC(C)=C(C(=O)OC)C1c1ccccc1Cl (stereo not drawn) [Amlodipine besylate, amlodipine benzenesulfonate, reference compound] | 0.992 | 0.996 | 0.993 | 0.993 | 1 | 0.15 | 0.05 | 0.05 | Solubility ([1]; distilled water, water, thermodynamic from solid, read-out: Solubility): 1400 µg/mL; time-dependent stability (in words) [2]: slight but significant degradation after 1 week
4 | CCOC(=O)C1=C(COCCN)NC(C)=C(C(=O)OC)C1c1ccccc1Cl [Amlodipine camsylate of Example 1 (S), Amlodipine Camsylate] | 1 | 0.998 | 1 | 1 | 1 | 0.15 | 0.05 | 0.05 | Solubility [1]: 1225 µg/mL (≈ 3 mM); Saturation pH ([1]; saturated solution in distilled water): 6.0
5 | CCOC(=O)C1=C(COCCN)NC(C)=C(C(=O)OC)C1c1ccccc1Cl [Amlodipine camsylate of Example 2 (R), Amlodipine Camsylate] | 1 | 1 | 1.002 | 1 | 1 | 0.15 | 0.05 | 0.05 | Solubility [1]: 1250 µg/mL (≈ 3.06 mM)
6 | CCOC(=O)C1=C(COCCN)NC(C)=C(C(=O)OC)C1c1ccccc1Cl (stereo not drawn) [Amlodipine camsylate, amlodipine camsylate] | – | – | – | – | – | – | – | – | time-dependent stability (in words) [2]: stable during the 4 weeks period
7 | O=S(=O)(O)c1ccccc1 [Benzene sulfonic acid] | – | – | – | – | – | – | – | – | LD50 (Rat): LD50 890 μl/kg; LDLO (Cat): LDLO 10 g/kg; LD50 (Wild-birds): LD50 75 mg/kg
8 | amlodipine maleate | – | – | – | – | – | – | – | – | stability in solution (in words) [4]: degrades in a solution within several weeks
